# Measured values published in patent publication US8729082B2, “Substituted imidazoquinoxalines” (Bayer Intellectual Property GmbH, priority 2009, dated 2014).
# Molecular target: T1, human kinase Mps-1 (Homo sapiens, UniProt P33981)
# T1 construct: N-terminally GST-tagged human full length recombinant Mps-1 kinase; purchased Invitrogen, Karslruhe, Germany PV4071
# T1 sequence (P33981 1-857): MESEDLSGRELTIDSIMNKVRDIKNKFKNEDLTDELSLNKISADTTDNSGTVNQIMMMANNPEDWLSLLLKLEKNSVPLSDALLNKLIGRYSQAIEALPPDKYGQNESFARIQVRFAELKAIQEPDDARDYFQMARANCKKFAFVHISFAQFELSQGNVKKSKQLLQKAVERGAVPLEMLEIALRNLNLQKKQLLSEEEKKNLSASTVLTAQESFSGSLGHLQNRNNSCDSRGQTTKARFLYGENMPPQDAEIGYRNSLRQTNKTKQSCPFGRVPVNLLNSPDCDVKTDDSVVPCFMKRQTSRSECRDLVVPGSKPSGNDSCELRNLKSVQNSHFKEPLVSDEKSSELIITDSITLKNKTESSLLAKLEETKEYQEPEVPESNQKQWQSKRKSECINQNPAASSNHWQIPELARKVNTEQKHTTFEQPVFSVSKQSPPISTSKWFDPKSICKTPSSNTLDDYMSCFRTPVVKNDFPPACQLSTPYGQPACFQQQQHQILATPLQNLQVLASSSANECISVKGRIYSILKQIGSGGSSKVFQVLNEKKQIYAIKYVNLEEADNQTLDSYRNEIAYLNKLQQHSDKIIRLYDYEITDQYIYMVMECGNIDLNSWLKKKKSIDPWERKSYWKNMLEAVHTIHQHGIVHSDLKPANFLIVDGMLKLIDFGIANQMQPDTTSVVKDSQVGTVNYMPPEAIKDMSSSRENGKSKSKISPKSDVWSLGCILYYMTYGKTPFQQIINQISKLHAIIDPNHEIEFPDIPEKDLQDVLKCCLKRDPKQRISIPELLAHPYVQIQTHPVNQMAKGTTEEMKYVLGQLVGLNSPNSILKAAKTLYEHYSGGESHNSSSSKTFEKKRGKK
# Experiment: Mps-1 kinase assay (HTRF)
# Format: biochemical
# Conditions: lowATP; mean; read-out: Mps1 lowATP mean IC50
# Summary of the method: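 HTRF readout: EDTA-stopped reactions incubated 1 h with europium anti-phospho(Ser/Thr) antibody and streptavidin-XLent, emission ratio 665/620 nm after 350 nm excitation. Kinase step: compound pre-bound 15 min to ~1 nM GST-Mps-1, then 60 min at 22 °C with ATP and biotin-peptide substrate; inhibition scaled between no-inhibitor (0%) and no-enzyme (100%) controls.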
row,Compound,IC50 [nM]
1,"O=C(NC1CC1)c1ccc(-c2cnc3c(NCCOc4ccccc4)nc4ccccc4n23)cc1 [Example 2-29, N-cyclopropyl-4-{4-[(2-phenoxyethyl)amino]imidazo[1,2-a]quinoxalin-1-yl}benzamide]",443
2,"Cc1cc2nc(NCCCNC(=O)OC(C)(C)C)c3ncc(-c4ccc(C(=O)NC5CC5)c(Cl)c4)n3c2cc1C [Example 2-197, tert-butyl [3-({1-[3-chloro-4-(cyclopropylcarbamoyl)phenyl]-7,8-dimethylimidazo[1,2-a]quinoxalin-4-yl}amino)propyl]carbamate]",50.5
3,"Cc1cc2nc(NCc3ccncc3)c3ncc(-c4ccc(C(=O)NC5CC5)c(Cl)c4)n3c2cc1C [Example 2-193, 2-chloro-N-cyclopropyl-4-{7,8-dimethyl-4-[(pyridin-4-ylmethyl)amino]imidazo[1,2-a]quinoxalin-1-yl}benzamide]",51.2
4,"CNC(=O)Nc1ccc(-c2cnc3c(NCc4ccncc4)nc4cc(F)c(F)cc4n23)cc1 [Example 2-123, 1-(4-{7,8-difluoro-4-[(pyridin-4-ylmethyl)amino]imidazo[1,2-a]quinoxalin-1-yl}phenyl)-3-methylurea]",3550
5,"O=C(NC1CC1)c1ccc(-c2cnc3c(NCc4cccc(F)c4)nc4ccccc4n23)cc1 [Example 2-5, N-cyclopropyl-4-{4-[(3-fluorobenzyl)amino]imidazo[1,2-a]quinoxalin-1-yl}benzamide]",90
6,"Cc1cc2nc(NCC(O)CO)c3ncc(-c4ccc(C(=O)NC5CC5)c(Cl)c4)n3c2cc1C (stereo not drawn) [Example 2-202, 2-chloro-N-cyclopropyl-4-{4-[(2,3-dihydroxypropyl)amino]-7,8-dimethylimidazo[1,2-a]quinoxalin-1-yl}benzamide]",335
7,"CC(C)(C)OC(=O)NCCCNc1nc2cc(F)c(F)cc2n2c(-c3ccc(C(=O)NC4CC4)c(Cl)c3)cnc12 [Example 2-140, tert-butyl [3-({1-[3-chloro-4-(cyclopropylcarbamoyl)phenyl]-7,8-difluoroimidazo[1,2-a]quinoxalin-4-yl}amino)propyl]carbamate]",3410
8,"CNC(=O)c1ccc(-c2cnc3c(NCC(C)C)nc4ccccc4n23)cc1Cl [Example 1-46, 2-chloro-N-methyl-4-{4-[(2-methylpropyl)amino]imidazo[1,2-a]quinoxalin-1-yl}benzamide]",2420
9,"O=C(NC1CC1)c1ccc(-c2cnc3c(NCCc4ccccc4)nc4ccccc4n23)cc1 [Example 2-8, N-cyclopropyl-4-{4-[(2-phenylethyl)amino]imidazo[1,2-a]quinoxalin-1-yl}benzamide]",169
10,"CNC(=O)Nc1ccc(-c2cnc3c(NCCCO)nc4ccc(F)cc4n23)cc1 [Example 2-65, 1-(4-{8-fluoro-4-[(3-hydroxypropyl)amino]imidazo[1,2-a]quinoxalin-1-yl}phenyl)-3-methylurea]",5420
11,"CNC(=O)c1ccc(-c2cnc3c(NCC(C)C)nc4ccccc4n23)cc1 [Example 1-17, N-methyl-4-{4-[(2-methylpropyl)amino]imidazo[1,2-a]quinoxalin-1-yl}benzamide]",192
12,"O=C(NC1CC1)c1ccc(-c2cnc3c(NCc4ccccc4F)nc4ccccc4n23)cc1 [Example 2-14, N-cyclopropyl-4-{4-[(2-fluorobenzyl)amino]imidazo[1,2-a]quinoxalin-1-yl}benzamide]",72.1
13,"CC(C)CNc1nc2cc(F)c(F)cc2n2c(-c3ccc(C(=O)NC4CC4)c(Cl)c3)cnc12 [Example 2-137, 2-chloro-N-cyclopropyl-4-{7,8-difluoro-4-[(2-methylpropyl)amino]imidazo[1,2-a]quinoxalin-1-yl}benzamide]",391
14,"O=C(NC1CC1)c1ccc(-c2cnc3c(NCCCN4CCOCC4)nc4ccc(F)cc4n23)cc1Cl [Example 2-76, 2-chloro-N-cyclopropyl-4-(8-fluoro-4-{[3-(morpholin-4-yl)propyl]amino}imidazo[1,2-a]quinoxalin-1-yl)benzamide]",10900
15,"O=C(NC1CC1)c1ccc(-c2cnc3c(NCc4ccccn4)nc4ccc(F)cc4n23)cc1 [Example 2-53, N-cyclopropyl-4-{8-fluoro-4-[(pyridin-2-ylmethyl)amino]imidazo[1,2-a]quinoxalin-1-yl}benzamide]",1050
16,"CNC(=O)Nc1ccc(-c2cnc3c(NCc4cnn(C)c4)nc4ccc(F)cc4n23)cc1 [Example 2-72, 1-[4-(8-fluoro-4-{[(1-methyl-1H-pyrazol-4-yl)methyl]amino}imidazo[1,2-a]quinoxalin-1-yl)phenyl]-3-methylurea]",2490
17,"Cn1cc(CNc2nc3cc(C#N)ccc3n3c(-c4ccc(C(=O)NC5CC5)c(Cl)c4)cnc23)cn1 [Example 2-253, 2-chloro-4-(7-cyano-4-{[(1-methyl-1H-pyrazol-4-yl)methyl]amino}imidazo[1,2-a]quinoxalin-1-yl)-N-cyclopropylbenzamide]",1220
18,"CS(=O)(=O)Nc1ccc(Nc2nc3ccccc3n3c(-c4ccc(C(=O)NC5CC5)cc4)cnc23)cc1 [Example 2-32, N-cyclopropyl-4-[4-({4-[(methylsulfonyl)amino]phenyl}amino)imidazo[1,2-a]quinoxalin-1-yl]benzamide]",202

# Further compounds by falling IC50, results first:
row,IC50 [nM],Compound
1,13600,"COc1ccc(-c2cnc3c(NCC(C)C)nc4ccccc4n23)cc1OC [Example 1-25, 1-(3,4-dimethoxyphenyl)-N-(2-methylpropyl)imidazo[1,2-a]quinoxalin-4-amine]"
2,8820,"CC(=O)NCCNc1nc2cc(C#N)ccc2n2c(-c3ccc(C(=O)NC4CC4)c(Cl)c3)cnc12 [Example 2-244, 4-(4-{[2-(acetylamino)ethyl]amino}-7-cyanoimidazo[1,2-a]quinoxalin-1-yl)-2-chloro-N-cyclopropylbenzamide]"
3,3850,"COCCCNc1nc2cc(F)c(F)cc2n2c(-c3ccc(C(=O)NC4CC4)c(Cl)c3)cnc12 [Example 2-139, 2-chloro-N-cyclopropyl-4-{7,8-difluoro-4-[(3-methoxypropyl)amino]imidazo[1,2-a]quinoxalin-1-yl}benzamide]"
4,3130,"O=C(NC1CC1)c1ccc(-c2cnc3c(NCCCO)nc4cc(F)c(F)cc4n23)cc1Cl [Example 2-130, 2-chloro-N-cyclopropyl-4-{7,8-difluoro-4-[(3-hydroxypropyl)amino]imidazo[1,2-a]quinoxalin-1-yl}benzamide]"
5,1630,"CNC(=O)Nc1ccc(-c2cnc3c(NCCCCO)nc4ccc(F)cc4n23)cc1 [Example 2-63, 1-(4-{8-fluoro-4-[(4-hydroxybutyl)amino]imidazo[1,2-a]quinoxalin-1-yl}phenyl)-3-methylurea]"
6,1580,"O=C(NC1CC1)c1ccc(-c2cnc3c(NCc4cccnc4)nc4cc(F)c(F)cc4n23)cc1Cl [Example 2-135, 2-chloro-N-cyclopropyl-4-{7,8-difluoro-4-[(pyridin-3-ylmethyl)amino]imidazo[1,2-a]quinoxalin-1-yl}benzamide]"
7,382,"O=C(NC1CC1)c1ccc(-c2cnc3c(NCCCN4CCCC4=O)nc4cc(F)c(F)cc4n23)cc1 [Example 2-93, N-cyclopropyl-4-(7,8-difluoro-4-{[3-(2-oxopyrrolidin-1-yl)propyl]amino}imidazo[1,2-a]quinoxalin-1-yl)benzamide]"
8,378,"NC(=O)CCNc1nc2ccc(F)cc2n2c(-c3ccc(C(=O)NC4CC4)cc3)cnc12 [Example 2-56, 4-{4-[(3-amino-3-oxopropyl)amino]-8-fluoroimidazo[1,2-a]quinoxalin-1-yl}-N-cyclopropylbenzamide]"
9,256,"Cn1ccc(CNc2nc3cc(F)c(F)cc3n3c(-c4ccc(C(=O)NC5CC5)cc4)cnc23)n1 [Example 2-109, N-cyclopropyl-4-(7,8-difluoro-4-{[(1-methyl-1H-pyrazol-3-yl)methyl]amino}imidazo[1,2-a]quinoxalin-1-yl)benzamide]"
10,214,"CC(C)CNc1nc2ccccc2n2c(-c3ccc(C(=O)NC4(C#N)CC4)cc3)cnc12 [Example 3-22, N-(1-cyanocyclopropyl)-4-{4-[(2-methylpropyl)amino]imidazo[1,2-a]quinoxalin-1-yl}benzamide]"
11,195,"N#Cc1ccc2c(c1)nc(NCCCN1CCCC1=O)c1ncc(-c3ccc(C(=O)NC4CC4)cc3)n12 [Example 2-207, 4-(7-cyano-4-{[3-(2-oxopyrrolidin-1-yl)propyl]amino}imidazo[1,2-a]quinoxalin-1-yl)-N-cyclopropylbenzamide]"
12,28.6,"CCCNc1nc2cc(F)c(F)cc2n2c(-c3ccc(C(=O)NC4CC4)cc3)cnc12 [Example 2-88, N-cyclopropyl-4-[7,8-difluoro-4-(propylamino)imidazo[1,2-a]quinoxalin-1-yl]benzamide]"
